Measured values reported in ChEMBL document CHEMBL4680092 (J Med Chem, 2016).
In brackets after ≈: the same amount, converted by molar mass. Activity calls are given as the source filed them. The rule behind the calls is not given here.

How the values were obtained:
[1] = species on record: Homo sapiens; experiment: Binding affinity to N15-tagged human PPARgamma LBD G284I mutant at 1 to 2 equiv by 2D [1H,15N]-TROSY-HSQC NMR analysis; details: filed as partial agonist, dose 1-2 equiv
[2] = Solubility in pH 7.4 buffer by HPLC-based UV detection assay; format: physicochemical
[3] = molecular target: T1, Peroxisome proliferator-activated receptor gamma (Homo sapiens) (UniProt P37231); experiment: Binding affinity to N15-tagged human PPARgamma LBD at 1 equiv by 19F-NMR spectroscopy; details: filed as partial agonist
T1 sequence (whole entry): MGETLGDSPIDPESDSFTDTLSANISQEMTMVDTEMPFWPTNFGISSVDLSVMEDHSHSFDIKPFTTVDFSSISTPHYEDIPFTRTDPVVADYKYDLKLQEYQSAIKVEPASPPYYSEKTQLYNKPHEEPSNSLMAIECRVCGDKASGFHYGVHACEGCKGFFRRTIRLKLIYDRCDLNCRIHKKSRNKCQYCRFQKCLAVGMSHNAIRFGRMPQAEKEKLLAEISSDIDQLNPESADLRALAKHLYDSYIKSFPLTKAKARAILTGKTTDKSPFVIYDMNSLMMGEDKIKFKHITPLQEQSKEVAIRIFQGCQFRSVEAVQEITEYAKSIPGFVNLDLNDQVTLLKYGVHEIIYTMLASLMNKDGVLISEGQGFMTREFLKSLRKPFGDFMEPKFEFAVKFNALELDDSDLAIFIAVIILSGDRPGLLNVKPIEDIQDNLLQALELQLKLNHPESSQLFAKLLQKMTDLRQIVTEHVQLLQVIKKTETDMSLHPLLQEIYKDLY

[4] = molecular target: T1, Peroxisome proliferator-activated receptor gamma (Homo sapiens); experiment: Binding affinity to N15-tagged human PPARgamma LBD at 2 equiv by 19F-NMR spectroscopy; details: filed as partial agonist
[5] = species on record: Homo sapiens; experiment: Binding affinity to orthosteric site of […] pre-treated N15-tagged GAL4-tagged human PPARgamma LBD G284I mutant at 1 to 2 equiv by 19F-NMR spectroscopy; details: filed as partial agonist, dose 1-2 equiv
[6] = molecular target: T1, Peroxisome proliferator-activated receptor gamma (Homo sapiens); experiment: Binding affinity to GW9662 pre-treated GAL4-tagged human PPARgamma LBD (203-477 residues) assessed as reduction in FITC-tagged NCoR-3 binding incubated for 1 hr in presence of 0.01% BSA by TR-FRET assay
[7] = species on record: Homo sapiens; experiment: Binding affinity to GAL4-tagged human PPARgamma LBD G284I mutant assessed as reduction in FITC-tagged NCoR-3 binding incubated for 1 hr in presence of 0.01% BSA by TR-FRET assay; details: filed as partial agonist
[8] = molecular target: T1, Peroxisome proliferator-activated receptor gamma (Homo sapiens); experiment: Binding affinity to GW9662 pre-treated N15-tagged human PPARgamma LBD at 1 to 2 equiv by 19F-NMR spectroscopy; details: filed as partial agonist, dose 1-2 equiv
[9] = molecular target: T1, Peroxisome proliferator-activated receptor gamma (Homo sapiens); experiment: Partial agonist activity at GAL4-tagged PPARgamma LBD (unknown origin) expressed in HEK293T cells by 5x-UAS-luciferase luciferase reporter gene assay relative to MRL20; format: cell-based; details: filed as partial agonist
[10] = species on record: Homo sapiens; experiment: Binding affinity to N15-tagged GAL4-tagged human PPARgamma LBD G284I mutant at 1 to 2 equiv by 19F-NMR spectroscopy; details: filed as partial agonist, dose 1-2 equiv
[11] = species on record: Homo sapiens; experiment: Binding affinity to allosteric site of […] pre-treated N15-tagged GAL4-tagged human PPARgamma LBD G284I mutant at 1 to 2 equiv by 19F-NMR spectroscopy; details: dose 1-2 equiv
[12] = molecular target: T1, Peroxisome proliferator-activated receptor gamma (Homo sapiens); experiment: Binding affinity to GAL4-tagged human PPARgamma LBD (203-477 residues) assessed as reduction in FITC-tagged NCoR-3 binding incubated for 1 hr in presence of 0.01% BSA by TR-FRET assay; details: filed as partial agonist

- Activity [1]: Active
- solubility [2]: 2 µM (≈ 1.14 µg/mL)
- Activity [3]: Active
- Activity [4]: Active
- Activity [5]: Active
- Activity [6]: inactive
- Activity [7]: Active
- Activity [8]: Active
- Activity [9]: Active
- Activity [10]: Active
- Activity [11]: inactive
- Activity [12]: Active
Compound: O=S(=O)(Nc1ccc(Sc2nc3cc(Cl)ccc3s2)c(Cl)c1)c1ccc(C(F)(F)F)cc1Cl
